Data taken from ChEMBL document CHEMBL1201862, “PubChem BioAssay data set” (2004).
Calls of active or inactive are those of the source.

Tests used:
Major prion protein = Major prion protein (Homo sapiens, UniProt P04156); assay type: functional, cell-based
cells [1] = test: cells
[2] = molecular target: T1, Microphthalmia-associated transcription factor (Homo sapiens, UniProt O75030); test: reducers of TRPM1 reporter luminescence, concentration series – cell-based, SK-MEL-5, cherry-picked, set 3, MITF inhibitor project, dose response (AID 493073); assay type: functional;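 also: SK-MEL-5 melanoma cells with luciferase driven by the MITF target TRPM1 promoter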
T1 sequence (O75030 whole entry): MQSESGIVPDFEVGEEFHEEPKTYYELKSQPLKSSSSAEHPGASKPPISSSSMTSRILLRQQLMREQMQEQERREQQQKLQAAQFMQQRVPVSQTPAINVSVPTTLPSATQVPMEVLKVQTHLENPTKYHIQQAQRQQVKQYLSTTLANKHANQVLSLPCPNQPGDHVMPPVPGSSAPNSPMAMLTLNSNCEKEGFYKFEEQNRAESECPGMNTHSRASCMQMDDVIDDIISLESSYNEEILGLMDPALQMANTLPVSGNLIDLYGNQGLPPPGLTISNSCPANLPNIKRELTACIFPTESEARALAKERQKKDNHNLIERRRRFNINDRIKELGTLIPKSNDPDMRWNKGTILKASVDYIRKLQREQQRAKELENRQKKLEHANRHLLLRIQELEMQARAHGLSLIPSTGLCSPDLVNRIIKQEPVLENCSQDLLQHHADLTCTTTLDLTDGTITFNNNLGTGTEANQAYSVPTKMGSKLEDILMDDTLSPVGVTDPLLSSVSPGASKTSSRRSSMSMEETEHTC

cells [3] = conditions: HEK293
[4] = Trypanosoma cruzi growth suppression in host cells – NIH3T3 host cells, beta-gal luminescence, confirmation (AID 2044); assay type: functional, cell-based;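 also: intracellular parasites grown in NIH/3T3 mouse fibroblasts as host cells; luminescent beta-galactosidase reporter signal from transgenic T. cruzi replicating inside host cells; inhibitors lower the luminescence signal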
[5] = molecular target: T2, DNA repair protein RAD52 homolog (Homo sapiens, UniProt P43351); assay type: functional, biochemical
T2 sequence (P43351 whole entry): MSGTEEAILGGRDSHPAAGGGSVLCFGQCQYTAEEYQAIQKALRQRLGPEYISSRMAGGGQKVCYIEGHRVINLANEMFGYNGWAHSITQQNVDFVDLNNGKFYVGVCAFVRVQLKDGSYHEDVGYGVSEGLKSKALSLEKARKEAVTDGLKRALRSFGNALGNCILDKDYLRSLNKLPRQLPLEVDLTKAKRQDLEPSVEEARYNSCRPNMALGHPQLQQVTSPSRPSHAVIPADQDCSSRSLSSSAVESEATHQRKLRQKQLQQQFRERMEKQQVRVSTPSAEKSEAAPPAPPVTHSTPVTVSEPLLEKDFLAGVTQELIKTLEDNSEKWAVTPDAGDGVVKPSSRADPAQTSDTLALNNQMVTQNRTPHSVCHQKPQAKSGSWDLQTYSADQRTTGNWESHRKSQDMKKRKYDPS

Transthyretin = Transthyretin (Homo sapiens, UniProt P02766); test: Luminescence-based cell-based high throughput dose response assay to identify activators of Transthyretin (TTR) transcription.; assay type: functional
A-375 = test: MITF: Counter assay: A375 proliferation Measured in Cell-Based System Using Plate Reader - 2084-03_Inhibitor_Dose_DryPowder_Activity. [Related pubchem assays (depositor defined):AID488944]; assay type: functional; conditions: Homo sapiens
cells [6] = conditions: A549
[7] = viability loss in HepG2 liver cells – cell-based, ATP luminescence, cherry-pick, set 6, cytotoxicity control, dose response (AID 1053125); assay type: functional
cells [8] = assay type: functional, cell-based
cells [9] = test: cells; remark: listed apart in the source
[10] = NIH3T3 cell viability loss – ATP luminescence, mouse fibroblasts, counter-screen, dose response (AID 2010); assay type: functional, cell-based;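 also: cells exposed to compound for about 90 hours before reading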
cells [11] = assay type: functional, cell-based; remark: listed apart in the source
[12] = molecular target: T3, Corticotropin-releasing factor receptor 2/Corticotropin-releasing factor-binding protein (Homo sapiens, UniProt P24387+Q13324); test: Dose Response confirmation of uHTS hits for small molecule antagonists of the CRF-binding protein and CRF-R2 receptor complex.; assay type: functional; conditions: read-out: IC50_Mean
T3 sequence (Q13324 whole entry): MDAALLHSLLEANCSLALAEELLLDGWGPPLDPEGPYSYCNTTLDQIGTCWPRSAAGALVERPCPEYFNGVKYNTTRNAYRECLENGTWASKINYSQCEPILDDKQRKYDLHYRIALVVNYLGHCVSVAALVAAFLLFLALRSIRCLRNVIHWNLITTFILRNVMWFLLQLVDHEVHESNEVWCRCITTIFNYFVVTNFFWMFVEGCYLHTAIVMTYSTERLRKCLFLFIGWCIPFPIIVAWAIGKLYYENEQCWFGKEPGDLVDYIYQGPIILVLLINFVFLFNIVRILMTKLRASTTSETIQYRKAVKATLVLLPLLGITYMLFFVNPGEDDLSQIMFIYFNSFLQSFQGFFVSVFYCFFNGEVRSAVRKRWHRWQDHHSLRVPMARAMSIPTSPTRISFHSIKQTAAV
T3 sequence (P24387 whole entry): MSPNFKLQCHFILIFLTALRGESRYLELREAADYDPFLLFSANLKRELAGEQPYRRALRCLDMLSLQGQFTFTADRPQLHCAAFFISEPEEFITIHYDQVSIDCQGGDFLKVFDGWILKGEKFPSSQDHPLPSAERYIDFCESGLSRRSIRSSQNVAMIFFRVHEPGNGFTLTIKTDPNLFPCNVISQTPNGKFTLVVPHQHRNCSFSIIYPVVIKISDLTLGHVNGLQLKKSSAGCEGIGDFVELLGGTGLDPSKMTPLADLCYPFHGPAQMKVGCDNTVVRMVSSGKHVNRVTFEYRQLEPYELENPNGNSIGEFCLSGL

[13] = molecular target: T3, Corticotropin-releasing factor receptor 2/Corticotropin-releasing factor-binding protein; test: activators of CRF receptor 2 with binding protein – uHTS hits, confirmation (AID 602473); assay type: functional; conditions: read-out: EC50_Mean
Kallikrein-7 = Kallikrein-7 (Homo sapiens, UniProt P49862); test: Fluorescence Intensity-based biochemical primary high throughput dose response assay to identify activators of kallikrein-7 (K7) zymogen.
[14] = molecular target: Tyrosyl-DNA phosphodiesterase 2 (Homo sapiens, UniProt O95551); test: potency against TDP2 phosphodiesterase activity – biochemical, epi absorbance, IC50, dose response (AID 743297)
INS1 = test: INS-1E survival protection against cytokine death – cell-based, luminescence, retest, dose response (AID 449756); assay type: functional; conditions: Rattus norvegicus;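 also: cell death triggered by IL-1 beta plus TNF-alpha plus IFN-gamma mixture; protective hits raise ATP signal compared with cytokine alone wells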
[15] = molecular target: COUP transcription factor 2 (Homo sapiens, UniProt P24468); test: Luminescence-based cell-based high throughput dose response assay to identify inhibitors of COUP-TFII (NR2F2).; assay type: functional;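 also: HEK293 cells transiently cotransfected with COUP-TFII expression vector and reporter; luciferase reporter luminescence driven by COUP-TFII from the pX2-168 reporter plasmid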
[16] = fluconazole-exposed Candida albicans growth modulators – fluorescence, retest, confirmation (AID 2467); assay type: functional, cell-based
[17] = NIH-3T3 fibroblast cytotoxicity, dose response, cytotoxicity control, cell-based, fluorescence, Alamar Blue, secondary assay (AID 2327); assay type: functional;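 also: NIH-3T3 mouse fibroblasts cultured with fluconazole at 8 µg/mL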
[18] = HIV-1 AD8 envelope cell-cell fusion blockers – cherry-pick, dose response (AID 652062); assay type: functional, cell-based;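 also: luciferase signal from cell-cell fusion driven by HIV-1 clade B AD8 Env; potency is for inhibitors of fusion seen as a drop in luminescence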
[19] = off-target signal loss in HeLa-CEM21 co-culture – HeLa F-luc CTL cells, cherry-picked, counter-screen for HIV-1 Env fusion inhibitor project, dose response (AID 652040); assay type: functional, cell-based;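 also: potency for signal decrease marking cytotoxic or nonspecific inhibition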
[20] = molecular target: 1-phosphatidylinositol 4,5-bisphosphate phosphodiesterase gamma-1 (Homo sapiens, UniProt P19174); test: Counterscreen for inhibitors of phospholipase C isozymes (PLC-B3): Fluorescence-based biochemical high throughput dose response assay to identify inhibitors of phospholipase C isozymes (PLC-gamma1).
[21] = molecular target: 1-phosphatidylinositol 4,5-bisphosphate phosphodiesterase beta-3 (Homo sapiens, UniProt Q01970); test: Fluorescence-based biochemical high throughput dose response assay to identify inhibitors of phospholipase C isozymes (PLC-B3).
Caspase-6 = Caspase-6 (Homo sapiens, UniProt P55212); test: inhibition of CASP6 peptide cleavage – biochemical, VEID-R110 fluorescence, cherry-pick, dose response (AID 720632)
Caspase-7 = Caspase-7 (Homo sapiens, UniProt P55210); test: caspase-7 enzyme inhibition, selectivity check – biochemical, DEVD-R110 fluorescence, cherry-pick, selectivity assay for caspase-6 inhibitor project, dose response (AID 743295); assay type: functional

CCOC(=O)CNC(=O)CSc1nc2c(C)cccc2cc1CC
IC50 (Major prion protein): 2.76 µM (active)
IC50 (cells [1]): > 138 µM (inactive)

OCCNc1c2ccccc2nc2ccccc12
AC50 [2]: 7.28 µM (active)
AC50 (cells [3]): 14.2 µM (active)
EC50 [4]: 0.993 µM (active)
AC50 [5]: 9.09 µM (active)
EC50 (Transthyretin): > 167 µM (inactive)
AC50 (A-375): 28.6 µM (active)
AC50 (cells [6]): 11.6 µM (active)
AC50 [7]: 17 µM (active)
EC50 (cells [8]): 23 µM (active)
AC50 (cells [9]): 11.7 µM (active)
EC50 [10]: 7.92 µM (active)
EC50 (cells [11]): > 350 µM (not active)

CCCCOC(=O)Oc1ccc2c(=O)c(Oc3cccc(C)c3)coc2c1
IC50 [12]: > 47.1 µM (inactive)
EC50 [13]: > 53 µM (inactive)
EC50 (Kallikrein-7): 6.86 µM (active)

CC1=NN(c2ccccc2)C(=O)/C1=C\c1ccc(Br)s1
IC50 [14]: > 128 µM (inactive)

Clc1ccc(OCCN2CCN(c3ncnc4sccc34)CC2)cc1
AC50 (INS1): 0.503 µM (active)
IC50 [15]: 1.13 µM (active)
EC50 [16]: 0.044 µM (active)
EC50 [17]: > 150 µM (inactive)
AC50 [18]: < 0.26 µM (active)
AC50 [19]: > 70 µM (inactive)

O=C(CSCc1ccccc1)Nc1cccc(F)c1
IC50 [20]: > 122 µM (inactive)
IC50 [21]: > 122 µM (inactive)

Cc1n[nH]c([S+]([O-])CC(=O)O)c1[N+](=O)[O-] (stereo not drawn)
AC50 (Caspase-6): 4.04 µM (active)
AC50 (Caspase-7): 56.5 µM (active)
